Test results taken from article PMC7286788 (ACS infectious diseases, 2019).
pIC50: −log10 of the molar value.

Key:
Vero cell = assay: Cytotoxicity against Vero cells
M. tuberculosis (H37Rv) = assay: MIC determination, M. tuberculosis; format: cell-based, Mycobacterium tuberculosis; details: 7H9 containing OADC; 14 days
HyMurG [1] = target: T1, HyMurG (Hydrogenivirga sp. 128-5-R1-1, UniProt A8US35); assay: UV-Vis-based MurG assay; format: biochemical; details: 50–100 μM
HyMurG [2] = target: T1, HyMurG; assay: HPLC-based MurG assay, dose-response, HyMurG; format: biochemical; details: read-out: IC50 HyMurG; HPLC-based method; average of two-three experiments
M. smegmatis (ATCC607) = assay: MIC determination, resazurin, M. smegmatis; format: cell-based, Mycobacterium smegmatis; details: 7H9 with 0.5% tween 80, 3 days at 37 °C
MsmegMurG = MsmegMurG (Mycolicibacterium smegmatis, UniProt A0R016); assay: biochemical; parameters: species or system Mycobacterium smegmatis; details: read-out: IC50 MsmegMurG; HPLC-based method; average of two-three experiments
MsmegMraY = MsmegMraY (Mycolicibacterium smegmatis, UniProt A0R019); assay: biochemical; format: biochemical, Mycobacterium smegmatis
MsmegMraY, sequence (A0R019 whole entry): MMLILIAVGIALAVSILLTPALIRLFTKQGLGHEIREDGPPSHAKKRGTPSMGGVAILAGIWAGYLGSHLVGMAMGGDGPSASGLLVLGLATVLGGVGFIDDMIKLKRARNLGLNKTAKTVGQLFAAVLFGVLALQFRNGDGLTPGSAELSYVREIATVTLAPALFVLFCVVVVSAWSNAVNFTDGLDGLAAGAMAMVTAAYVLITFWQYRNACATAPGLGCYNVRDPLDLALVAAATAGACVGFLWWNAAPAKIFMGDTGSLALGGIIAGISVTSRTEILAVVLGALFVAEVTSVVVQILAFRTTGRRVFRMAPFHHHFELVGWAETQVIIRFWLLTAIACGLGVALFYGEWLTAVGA

T1 sequence (A8US35 1-350): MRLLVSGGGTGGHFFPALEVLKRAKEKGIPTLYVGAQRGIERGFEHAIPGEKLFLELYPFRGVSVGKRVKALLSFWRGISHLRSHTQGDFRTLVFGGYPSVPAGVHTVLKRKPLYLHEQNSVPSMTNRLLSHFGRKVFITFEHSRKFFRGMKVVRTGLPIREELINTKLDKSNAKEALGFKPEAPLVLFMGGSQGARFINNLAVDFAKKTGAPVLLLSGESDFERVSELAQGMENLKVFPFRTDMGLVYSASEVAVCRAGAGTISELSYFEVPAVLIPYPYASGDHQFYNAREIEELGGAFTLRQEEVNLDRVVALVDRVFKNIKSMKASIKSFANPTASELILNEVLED
MsmegMurG, sequence (A0R016 whole entry): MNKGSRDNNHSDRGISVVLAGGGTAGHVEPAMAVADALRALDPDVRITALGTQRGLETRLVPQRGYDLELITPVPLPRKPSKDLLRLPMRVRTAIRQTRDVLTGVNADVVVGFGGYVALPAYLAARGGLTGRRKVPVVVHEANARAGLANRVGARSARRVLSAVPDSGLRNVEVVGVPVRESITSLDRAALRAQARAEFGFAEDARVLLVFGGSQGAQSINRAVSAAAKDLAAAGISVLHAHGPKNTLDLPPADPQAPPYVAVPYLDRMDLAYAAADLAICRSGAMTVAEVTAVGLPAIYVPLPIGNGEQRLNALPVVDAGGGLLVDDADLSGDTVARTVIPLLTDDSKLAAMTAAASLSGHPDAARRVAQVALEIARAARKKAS

tunicamycin
Vero cell cytotoxicity IC50 (Vero cell): 1.56 µg/mL
M. tuberculosis (H37Rv) MIC (M. tuberculosis (H37Rv)): 12.5 µg/mL
Inhibition of MurG function / lipid II formation (HyMurG [1]): did not inhibit
pIC50 (HyMurG [2]): < 4.00
M. smegmatis (ATCC607) MIC (M. smegmatis (ATCC607)): 6.25 to 12.5 µg/mL
pIC50 (MsmegMurG): < 4.00
MurX activity after addition of inhibitor (MsmegMraY; 50 μM, P-60, protocol B): terminated completely
pIC50 (MsmegMraY; read-out: IC50 MsmegMraY, HPLC-based method, average of two-three experiments): 5.54
